From patent US7943770B2, “Fused quinoline derivative and use thereof” (Takeda Pharmaceutical Company Limited, priority 2004, dated 2011) come the findings set out here.

A word on the pIC50: it is the negative decadic logarithm of the IC50, by convention in mol/L. Higher therefore signals a small IC50.

pIC50: −log10 of the molar value.

The target of this experiment is T1, hNK2 receptor (Homo sapiens, UniProt P21452).
T1 construct: host or cells: CHO cells
T1 sequence (P21452 1-398): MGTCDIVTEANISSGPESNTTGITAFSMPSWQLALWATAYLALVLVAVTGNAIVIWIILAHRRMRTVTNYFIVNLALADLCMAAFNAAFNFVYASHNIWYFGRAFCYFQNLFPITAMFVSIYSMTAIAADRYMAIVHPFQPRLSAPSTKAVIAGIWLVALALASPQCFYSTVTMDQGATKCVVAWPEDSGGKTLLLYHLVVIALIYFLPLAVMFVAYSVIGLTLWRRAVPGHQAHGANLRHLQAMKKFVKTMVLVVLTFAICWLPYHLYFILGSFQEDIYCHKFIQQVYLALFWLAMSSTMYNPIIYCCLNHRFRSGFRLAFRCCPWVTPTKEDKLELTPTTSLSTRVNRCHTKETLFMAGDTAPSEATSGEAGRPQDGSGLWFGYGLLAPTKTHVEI
Kind of experiment: Radio-ligand ([125I]-NKA) receptor binding inhibitory activity using membrane fraction of hNK2 receptor-expressing CHO cell. Conditions: membrane fraction of hNK2 receptor-expressing CHO cells, 25° C., 30 min. Summed up: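 Membranes from hNK2-expressing CHO cells (20 μg/mL suspension) incubated with test compound and [125I]-NKA ([…] solution as added) in Tris-HCl pH 7.4 with BSA, protease inhibitors, 3 mM MnCl2, 25 °C, 30 min. Bound radioactivity by GF/C filtration and scintillation; inhibition expressed relative to specific binding (total minus unlabeled-NKA non-specific).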
In turn, `COC[C@@H]1Nc2ccccc2[C@H]2[C@@H]1CCN2C(=O)[C@H]1CCCC[C@H]1NC(=O)c1ccc(N2CCSCC2)cc1` [Example 291, N-((1R,2S)-2-{[(3aR,4R,9bR)-4-(Methoxymethyl)-2,3,3a,4,5,9b-hexahydro-1H-pyrrolo[3,2-c]quinolin-1-yl]carbonyl}cyclohexyl)-4-thiomorpholin-4-ylbenzamide] had a pIC50 greater than 9.00.
To `O=C(Nc1ccccc1)N[C@@H]1CCCC[C@@H]1C(=O)N1CC[C@@H]2[C@H](c3ncc[nH]3)Nc3ccccc3[C@@H]21` [Example 293, N-((1R,25)-2-{[(3aR,4R,9bR)-4-(1H-Imidazol-2-yl)-2,3,3a,4,5,9b-hexahydro-1H-pyrrolo[3,2-c]quinolin-1-yl]carbonyl}cyclohexyl)-N′-phenylurea] belongs greater than 9.00.
To `O=C(/C=C/c1ccc(C(F)(F)F)cc1)N[C@@H]1CCCC[C@@H]1C(=O)N1CC[C@@H]2[C@H](c3ncc[nH]3)Nc3ccccc3[C@@H]21` [Example 294, (2E)-N-((1R,2S)-2-{[(3aR,4R,9bR)-4-(1H-Imidazol-2-yl)-2,3,3a,4,5,9b-hexahydro-1H-pyrrolo[3,2-c]quinolin-1-yl]carbonyl}cyclohexyl)-3-[4-(trifluoromethyl)phenyl]acrylamide] belongs greater than 9.00.
In the case of `CCNC(=O)N[C@@H]1CCCC[C@@H]1C(=O)N1CC[C@@H]2[C@H](c3ncc[nH]3)Nc3ccccc3[C@@H]21` [Example 295, N-Ethyl-N′-((1R,2S)-2-{[(3aR,4R,9bR)-4-(1H-imidazol-2-yl)-2,3,3a,4,5,9b-hexahydro-1H-pyrrolo[3,2-c]quinolin-1-yl]carbonyl}cyclohexyl)urea] it was greater than 8.00; in that of `O=C(N[C@@H]1CCCC[C@@H]1C(=O)N1CC[C@@H]2[C@H](c3ncc[nH]3)Nc3ccccc3[C@@H]21)c1ccc(C(F)(F)F)cc1` [Example 296, N-((1R,2S)-2-{[(3aR,4R,9bR)-4-(1H-Imidazol-2-yl)-2,3,3a,4,5,9b-hexahydro-1H-pyrrolo[3,2-c]quinolin-1-yl]carbonyl}cyclohexyl)-4-(trifluoromethyl)benzamide], greater than 9.00.
`O=C(/C=C/c1ccc(F)cc1)N[C@@H]1CCCC[C@@H]1C(=O)N1CC[C@@H]2[C@H](c3ncc[nH]3)Nc3ccccc3[C@@H]21` [Example 297, (2E)-3-(4-Fluorophenyl)-N-((1R,2S)-2-{[(3aR,4R,9bR)-4-(1H-imidazol-2-yl)-2,3,3a,4,5,9b-hexahydro-1H-pyrrolo[3,2-c]quinolin-1-yl]carbonyl}cyclohexyl)acrylamide]: the pIC50 was greater than 9.00.
To `O=C(Nc1ccc(F)cc1)N[C@@H]1CCCC[C@@H]1C(=O)N1CC[C@@H]2[C@H](c3ncc[nH]3)Nc3ccccc3[C@@H]21` [Example 298, N-(4-Fluorophenyl)-N′-((1R,2S)-2-{[(3aR,4R,9bR)-4-(1H-imidazol-2-yl)-2,3,3a,4,5,9b-hexahydro-1H-pyrrolo[3,2-c]quinolin-1-yl]carbonyl}cyclohexyl)urea] belongs greater than 9.00; to `CCCCNC(=O)N[C@@H]1CCCC[C@@H]1C(=O)N1CC[C@@H]2[C@H](c3ncc[nH]3)Nc3ccccc3[C@@H]21` [Example 299, N-Butyl-N′-((1R,2S)-2-{[(3aR,4R,9bR)-4-(1H-imidazol-2-yl)-2,3,3a,4,5,9b-hexahydro-1H-pyrrolo[3,2-c]quinolin-1-yl]carbonyl}cyclohexyl)urea], greater than 9.00; to `O=C(/C=C/c1cccs1)N[C@@H]1CCCC[C@@H]1C(=O)N1CC[C@@H]2[C@H](c3ncc[nH]3)Nc3ccccc3[C@@H]21` [Example 300, (2E)-N-((1R,2S)-2-{[(3aR,4R,9bR)-4-(1H-Imidazol-2-yl)-2,3,3a,4,5,9b-hexahydro-1H-pyrrolo[3,2-c]quinolin-1-yl]carbonyl}cyclohexyl)-3-thien-2-ylacrylamide], greater than 9.00.
Molecule `O=C(N[C@@H]1CCCC[C@@H]1C(=O)N1CC[C@@H]2[C@H](c3ncc[nH]3)Nc3ccccc3[C@@H]21)c1ccc(F)c(Cl)c1` [Example 301, 3-Chloro-4-fluoro-N-((1R,2S)-2-{[(3aR,4R,9bR)-4-(1H-imidazol-2-yl)-2,3,3a,4,5,9b-hexahydro-1H-pyrrolo[3,2-c]quinolin-1-yl]carbonyl}cyclohexyl)benzamide] had a pIC50 greater than 9.00.
To `O=C(N[C@@H]1CCCC[C@@H]1C(=O)N1CC[C@@H]2[C@H](c3ncc[nH]3)Nc3ccccc3[C@@H]21)c1ccccc1F` [Example 302, 2-Fluoro-N-((1R,2S)-2-{[(3aR,4R,9bR)-4-(1H-imidazol-2-yl)-2,3,3a,4,5,9b-hexahydro-1H-pyrrolo[3,2-c]quinolin-1-yl]carbonyl}cyclohexyl)benzamide] belongs greater than 9.00.
With `O=C(N[C@@H]1CCCC[C@@H]1C(=O)N1CC[C@@H]2[C@H](c3ncc[nH]3)Nc3ccccc3[C@@H]21)c1ccc(Cl)cc1` [Example 303, 4-Chloro-N-((1R,2S)-2-{[(3aR,4R,9bR)-4-(1H-imidazol-2-yl)-2,3,3a,4,5,9b-hexahydro-1H-pyrrolo[3,2-c]quinolin-1-yl]carbonyl}cyclohexyl)benzamide], the pIC50 is greater than 9.00.
To `N#Cc1ccc(C(=O)N[C@@H]2CCCC[C@@H]2C(=O)N2CC[C@@H]3[C@H](c4ncc[nH]4)Nc4ccccc4[C@@H]32)cc1` [Example 304, 4-cyano-N-((1R,2S)-2-{[(3aR,4R,9bR)-4-(1H-imidazol-2-yl)-2,3,3a,4,5,9b-hexahydro-1H-pyrrolo[3,2-c]quinolin-1-yl]carbonyl}cyclohexyl)benzamide] belongs greater than 9.00.
To `O=C(N[C@@H]1CCCC[C@@H]1C(=O)N1CC[C@@H]2[C@H](c3ncc[nH]3)Nc3ccccc3[C@@H]21)c1cccc(C(F)(F)F)c1` [Example 305, N-((1R,2S)-2-{[(3aR,4R,9bR)-4-(1H-Imidazol-2-yl)-2,3,3a,4,5,9b-hexahydro-1H-pyrrolo[3,2-c]quinolin-1-yl]carbonyl}cyclohexyl)-3-(trifluoromethyl)benzamide] belongs greater than 9.00.
In the case of `NC(=O)c1ccc(C(=O)N[C@@H]2CCCC[C@@H]2C(=O)N2CC[C@@H]3[C@H](c4ncc[nH]4)Nc4ccccc4[C@@H]32)cc1` [Example 306, N-((1R,2S)-2-{[(3aR,4R,9bR)-4-(1H-Imidazol-2-yl)-2,3,3a,4,5,9b-hexahydro-1H-pyrrolo[3,2-c]quinolin-1-yl]carbonyl}cyclohexyl)terephthalamide] it was greater than 8.00.
Molecule `N#Cc1ccc(NC(=O)N[C@@H]2CCCC[C@@H]2C(=O)N2CC[C@@H]3[C@H](c4ncc[nH]4)Nc4ccccc4[C@@H]32)cc1` [Example 307, N-(4-Cyanophenyl)-N′-((1R,2S)-2-{[(3aR,4R,9bR)-4-(1H-imidazol-2-yl)-2,3,3a,4,5,9b-hexahydro-1H-pyrrolo[3,2-c]quinolin-1-yl]carbonyl}cyclohexyl)urea] showed a pIC50 greater than 9.00.
To `N#Cc1cccc(C(=O)N[C@@H]2CCCC[C@@H]2C(=O)N2CC[C@@H]3[C@H](c4ncc[nH]4)Nc4ccccc4[C@@H]32)c1` [Example 308, 3-Cyano-N-((1R,2S)-2-{[(3aR,4R,9bR)-4-(1H-imidazol-2-yl)-2,3,3a,4,5,9b-hexahydro-1H-pyrrolo[3,2-c]quinolin-1-yl]carbonyl}cyclohexyl)benzamide] belongs greater than 9.00.
